Patent US6358953B1, “Pterin antineoplastic agents” (priority 1998, dated 2002)

Columns and labels:
[1] = pterin suspensions tested by the NIH; cited from earlier work
[2] = tested on: C3H/HeN-MTV+ mammary gland adenocarcinoma; conditions: oral gavage 3/16 mL of 5 mM pterin in 1.25 mM CaCl2 daily (about 7 mg/kg/day) for 8 days; Figure One
Method: LaRusso, P., et al. Cancer Research 50: 4900-4905 (1990). T/C is the ratio between the median tumor volume (MTV) of the Test group of tumor producing mice and the MTV of the Control group of mice. […] The median tumor volume of each group is determined, including zeros (remissions), for each day of measurement. The T/C value in percentage is an indication of antitumor effectiveness (Figure Two). A T/C equal to or less than 42% is considered significant antitumor activity. A T/C value <10% is indicative of a high degree of antitumor activity and is the level used by the National Cancer Institute to justify systematic toxicology studies preliminary to Investigational New Drug (IND) filing (termed DN-2 level activity).
The A-line at 42% represents the level of activity established by the N.C.I. for “significant antitumor activity”. The B-line at about 10% depicts the level representing a “high degree of antitumor activity”.

[3] = tested on: MDA MB 231 breast cancer cells; assay: Human breast tumor xenograft in athymic nude mice, oral gavage; format: in vivo; conditions: oral gavage once daily for 14 days, 3/16 mL, Figure Three
Excerpt: This study evaluated the activity of the test agent, CaPterin, on human mammary tumor xenografts in mice. Athymic nude (nu/nu) female mice, age 3-4 weeks, were purchased from Harlan Spreague Dawley, Inc. (Indianapolis, Ind.). The animals were housed four per cage in sterile filter-topped cages in ventilated cage racks and Microisolator™ cages (LabProducts, DE). Upon arrival, the mice were quarantined for at least four working days before use. The animal facility is AAALAC-accredited. Temperature is maintained at 72+/−5° F. and relative humidity at 35-70%; a 12-hour light/dark cycle was used. The mice were fed sterile, autoclavable, certified Purina rodent chow ad libitum. […] The water supply is analyzed quarterly for metals and trace contaminants. […]
Tumor dimensions and body weights were measured 4 times weekly for approximately three weeks from the start of treatment. Tumors were measured in three planes using Vernier calipers, and tumor volume (V) was calculated as follows: V=pi(x x y x z)/6, where x, y, and z are the tumor measurements minus skin thickness. The mean tumor volume was calculated at each time point. For each group, the mean of the ratio V/Vo was plotted as a function of time after treatment, and tumor growth delay calculated. Treatment toxicity was assessed from reductions in body weight after treatment. […]

[4] = Treatment toxicity (body weight reduction) in athymic nude mice; format: in vivo; conditions: oral gavage once daily for 14 days; assessed from reductions in body weight
Method: MDA MB 231 breast cancer cells (5,000,000 cells in 100 uL of phosphate buffered saline) were injected subcutaneously into the right leg of female immunodeficient athymic nude mice. When the tumors reached a mean diameter of 3-5 mm, the mice were divided into two groups (8 mice per treatment group), and the treatment begun. The mice were treated by oral gavage once daily for 14 days with either 3/16 mL of the vehicle control (water) or with 3/16 mL of 5 mM CaCl2 .Pterin from Example 2.
Tumor dimensions and body weights were measured 4 times weekly for approximately three weeks from the start of treatment. Tumors were measured in three planes using Vernier calipers, and tumor volume (V) was calculated as follows: V=pi(x x y x z)/6, where x, y, and z are the tumor measurements minus skin thickness. The mean tumor volume was calculated at each time point. For each group, the mean of the ratio V/Vo was plotted as a function of time after treatment, and tumor growth delay calculated. Treatment toxicity was assessed from reductions in body weight after treatment. The mice were sacrificed if their tumor volumes reached greater than or equal to 1600 mm^3 or weight loss exceeded 25%.

Compound: Nc1nc2nccnc2c(=O)[nH]1 [Pterin]
- antineoplastic activity [1]: no significant antineoplastic activity

Compound: CaCl2(pterin)4
- median tumor volume (MTV) relative to controls [2]: strongly regresses tumor growth relative to controls

Compound: CaCl2(pterin)4 [CaPterin]
- mean growth response as relative tumor volume (V/Vo) relative to controls [3]: strongly regresses tumor growth relative to controls
- toxicity throughout the course of treatment [4]: no evidence of toxicity
